ChEMBL document CHEMBL5113446, “Design, synthesis and biological evaluation of novel aminopropylcarboxamide derivatives as sigma ligands” (Bioorg Med Chem Lett, 2022)

How the values were obtained:
Mu-type opioid receptor = Mu-type opioid receptor (Homo sapiens, UniProt P35372); assay: Binding affinity to MOR (unknown origin) assessed as inhibition constant by radioligand binding assay
[1] = molecular target: Sigma non-opioid intracellular receptor 1 (Homo sapiens, UniProt Q99720); assay: Binding affinity to sigma 1 receptor (unknown origin) assessed as inhibition constant by radioligand binding assay
Sigma non-opioid intracellular receptor 1, sequence (Q99720 whole entry): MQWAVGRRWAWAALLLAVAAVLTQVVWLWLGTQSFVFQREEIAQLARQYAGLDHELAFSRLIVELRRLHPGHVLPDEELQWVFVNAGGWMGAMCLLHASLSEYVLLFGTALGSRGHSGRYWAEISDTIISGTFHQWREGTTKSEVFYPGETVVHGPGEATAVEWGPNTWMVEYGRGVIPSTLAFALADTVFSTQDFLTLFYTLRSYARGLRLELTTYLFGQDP

[2] = molecular target: Delta-type opioid receptor (Homo sapiens, UniProt P41143); assay: Binding affinity to DOR (unknown origin) assessed as inhibition constant by radioligand binding assay
Delta-type opioid receptor, sequence (P41143 whole entry): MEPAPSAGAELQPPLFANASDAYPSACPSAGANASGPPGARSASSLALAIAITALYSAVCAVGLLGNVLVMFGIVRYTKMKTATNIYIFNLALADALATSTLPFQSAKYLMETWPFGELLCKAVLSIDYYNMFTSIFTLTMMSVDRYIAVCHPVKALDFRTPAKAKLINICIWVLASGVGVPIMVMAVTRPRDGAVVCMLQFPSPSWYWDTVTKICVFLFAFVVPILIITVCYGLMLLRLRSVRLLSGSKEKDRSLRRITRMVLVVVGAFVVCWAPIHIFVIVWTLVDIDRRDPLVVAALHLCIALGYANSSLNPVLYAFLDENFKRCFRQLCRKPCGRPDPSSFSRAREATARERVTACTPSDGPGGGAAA

[3] = molecular target: Kappa-type opioid receptor (Homo sapiens, UniProt P41145); assay: Binding affinity to KOR (unknown origin) assessed as inhibition constant by radioligand binding assay
Kappa-type opioid receptor, sequence (P41145 whole entry): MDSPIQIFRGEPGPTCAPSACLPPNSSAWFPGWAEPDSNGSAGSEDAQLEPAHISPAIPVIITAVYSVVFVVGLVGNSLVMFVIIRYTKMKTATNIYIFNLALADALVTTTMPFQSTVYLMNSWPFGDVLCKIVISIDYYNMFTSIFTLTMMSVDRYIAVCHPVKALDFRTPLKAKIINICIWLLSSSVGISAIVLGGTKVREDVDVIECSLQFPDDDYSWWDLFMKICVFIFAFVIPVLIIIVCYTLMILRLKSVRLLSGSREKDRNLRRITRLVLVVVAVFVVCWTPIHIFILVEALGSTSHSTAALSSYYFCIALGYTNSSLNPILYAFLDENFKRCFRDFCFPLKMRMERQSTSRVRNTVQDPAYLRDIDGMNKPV

[4] = molecular target: Sigma intracellular receptor 2 (Homo sapiens, UniProt Q5BJF2); assay: Binding affinity to sigma 2 receptor (unknown origin) assessed as inhibition constant by radioligand binding assay
Sigma intracellular receptor 2, sequence (Q5BJF2 whole entry): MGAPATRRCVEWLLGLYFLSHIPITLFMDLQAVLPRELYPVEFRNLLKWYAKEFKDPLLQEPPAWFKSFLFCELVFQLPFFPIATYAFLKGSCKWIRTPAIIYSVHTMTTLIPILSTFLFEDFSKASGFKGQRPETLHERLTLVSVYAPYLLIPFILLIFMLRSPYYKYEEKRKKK

Homo sapiens = species on record: Homo sapiens; assay: Selectivity index, ratio of Ki for sigma 1 receptor (unknown origin) to Ki for sigma 2 receptor (unknown origin)
SK-BR-3 [5] = assay: Cytotoxicity against ER/PR-negative HER2-positive human SK-BR-3 cells harbouring […] assessed as reduction in cell viability at 100 to 200 uM incubated for 48 hrs by resazurin dye based assay relative to control; assay type: functional; settings: dose 100-200 µM
MCF7 [6] = assay: Cytotoxicity against ER/PR-positive HER2-negative human MCF7 cells harbouring […] assessed as inhibition of cell growth incubated for 48 hrs by resazurin dye based assay; assay type: functional; settings: MCF7, 48 h
SK-BR-3 [7] = assay: Cytotoxicity against ER/PR-negative HER2-positive human SK-BR-3 cells harbouring […] assessed as inhibition of cell growth incubated for 48 hrs by resazurin dye based assay; assay type: functional; settings: SK-BR-3, 48 h
MCF7 [8] = assay: Cytotoxicity against ER/PR-positive HER2-negative human MCF7 cells harbouring […] assessed as reduction in cell viability at 100 uM incubated for 48 hrs by resazurin dye based assay relative to control; assay type: functional

Mu-type opioid receptor, sequence (P35372 whole entry): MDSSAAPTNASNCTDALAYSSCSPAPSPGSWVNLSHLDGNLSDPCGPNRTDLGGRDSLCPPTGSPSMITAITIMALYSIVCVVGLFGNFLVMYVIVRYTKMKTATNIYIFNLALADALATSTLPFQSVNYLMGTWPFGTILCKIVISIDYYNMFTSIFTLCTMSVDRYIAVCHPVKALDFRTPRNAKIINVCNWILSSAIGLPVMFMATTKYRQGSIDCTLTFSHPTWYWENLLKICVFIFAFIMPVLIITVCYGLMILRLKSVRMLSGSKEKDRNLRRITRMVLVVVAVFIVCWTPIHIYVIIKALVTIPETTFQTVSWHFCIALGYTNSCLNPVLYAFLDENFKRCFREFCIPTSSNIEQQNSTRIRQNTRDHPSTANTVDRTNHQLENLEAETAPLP

Row | Structure (SMILES) | Ki (Mu-type opioid receptor) | Ki [1] | Ki [2] | Ki [3] | Ki [4] | Ratio Ki (Homo sapiens) | Activity (SK-BR-3 [5]) | IC50 (MCF7 [6]) | IC50 (SK-BR-3 [7]) | Activity (MCF7 [8]) | IC50 (MCF7 [6]; read-out: IC50)
1 | CN(CCCNC(=O)c1ccco1)Cc1ccccc1 | > 10 µM | > 10 µM | > 10 µM | > 10 µM | 1.07 µM |  |  |  |  |  | 
2 | COc1ccc(CN(C)CCCNC(=O)c2ccc3ccccc3c2)cc1OC | 1.22 µM | 1.44 µM | > 10 µM | > 10 µM | 0.126 µM | 11 |  |  |  |  | 
3 | O=C(CCCN1CCC(O)(c2ccc(Cl)cc2)CC1)c1ccc(F)cc1 [HALOPERIDOL] |  |  |  |  |  |  | 48% | 68 µM | 131 µM | 79% | 
4 | COc1ccc(CN(C)CCCNC(=O)c2cc3ccccc3o2)cc1OC | 2.9 µM | 0.375 µM | > 10 µM | > 10 µM | 0.046 µM | 8.1 | <=60% |  | 35 µM | <=60% | 36 µM
5 | COc1ccc(CN(C)CCCNC(=O)c2ccco2)cc1OC | > 10 µM | > 10 µM | > 10 µM | 4.17 µM | > 5 µM |  |  |  |  |  | 
6 | COc1ccc(CN(C)CCCNC(=O)c2ccc3ccccc3n2)cc1OC | 0.056 µM | 0.573 µM | > 10 µM | > 10 µM | 0.016 µM | 35 | <=60% |  | 88 µM | <=50% | 251 µM
7 | Fc1ccc(-n2cc(CCCCN3CCC4(CC3)OCc3ccccc34)c3ccccc32)cc1 [SIRAMESINE] |  |  |  |  |  |  | 98% |  | 14 µM | 96% | 13 µM
8 | CN(CCCNC(=O)c1cc2ccccc2o1)Cc1ccccc1 | 1.77 µM | 0.012 µM | > 10 µM | 2.39 µM | 0.0099 µM | 1.2 | 50% |  | 52 µM | <=50% | 86 µM
9 | CN(CCCNC(=O)c1ccc2ccccc2n1)Cc1ccccc1 | 2.76 µM | 0.016 µM | > 10 µM | 3.58 µM | 0.021 µM | 0.7 | 50% |  | 169 µM | 30% | 1640 µM
10 | CN(CCCNC(=O)c1ccc2ccccc2c1)Cc1ccccc1 | 3.43 µM | 0.104 µM | > 10 µM | > 10 µM | 0.106 µM | 1 |  |  |  |  | 
